# Source: ChEMBL document CHEMBL4011583, “Enhancing activity and selectivity in a series of pyrrol-1-yl-1-hydroxypyrazole-based aldose reductase inhibitors: The case of trifluoroacetylation” (Eur J Med Chem, 2017)
# What was measured:
# [1] = Inhibition of Wistar rat lens ALR2 assessed as reduction in NADPH oxidation using D,L-glyceraldehyde as substrate by UV-visible spectrophotometric method
# [2] = species: Rattus norvegicus; assay: Selectivity index, ratio of IC50 for Wistar rat kidney ALR1 to IC50 for Wistar rat lens ALR2
# [3] = target: Aldo-keto reductase family 1 member A1 (Rattus norvegicus, UniProt P51635); assay: Inhibition of Wistar rat kidney ALR1 assessed as reduction in NADPH oxidation using D-glycuronate as substrate by UV-visible spectrophotometric method
# [4] = Inhibition of Fischer-344 rat lens ALR2
# [5] = Mixed-type inhibition of recombinant human ALR2 expressed in Escherichia coli BL21 (DE3) assessed as enzyme-substrate-inhibitor complex using varying levels of D,L-glyceraldehyde substrate by Hanes-Woolf plot analysis
# [6] = Mixed-type inhibition of recombinant human ALR2 expressed in Escherichia coli BL21 (DE3) assessed as enzyme-inhibitor complex using varying levels of L-idose substrate by Hanes-Woolf plot analysis
# [7] = species: Rattus norvegicus; assay: Inhibition of ALR2 in Wistar rat lens assessed as reduction in glucose induced-sorbitol accumulation by measuring sorbitol level at 10 uM pretreated for 30 mins followed by glucose challenge measured after 3 hrs by resazurin dye based fluorescence assay (reference value: 1026.51 +/- 157.33)
# [8] = Mixed-type inhibition of recombinant human ALR2 expressed in Escherichia coli BL21 (DE3) assessed as enzyme-substrate-inhibitor complex using varying levels of L-idose substrate by Hanes-Woolf plot analysis
# [9] = species: Homo sapiens; assay: Ratio of Ki for recombinant human ALR2 expressed in Escherichia coli BL21 (DE3) assessed as enzyme-substrate-inhibitor complex using varying levels of glutathionyl-4-hydroxytrans-2-nonenal substrate to Ki for human ALR2 expressed in Escherichia coli BL21 (DE3) assessed as enzyme-inhibitor complex using varying levels of glutathionyl-4-hydroxytrans-2-nonenal substrate
# [10] = Mixed-type inhibition of recombinant human ALR2 expressed in Escherichia coli BL21 (DE3) assessed as enzyme-inhibitor complex using varying levels of glutathionyl-4-hydroxytrans-2-nonenal substrate by Hanes-Woolf plot analysis
# [11] = Mixed-type inhibition of recombinant human ALR2 expressed in Escherichia coli BL21 (DE3) assessed as enzyme-substrate-inhibitor complex using varying levels of glutathionyl-4-hydroxytrans-2-nonenal substrate by Hanes-Woolf plot analysis
# [12] = species: Rattus norvegicus; assay: Inhibition of ALR2 in Wistar rat lens assessed as reduction in glucose induced-sorbitol accumulation by measuring sorbitol level at 2 uM pretreated for 30 mins followed by glucose challenge measured after 3 hrs by resazurin dye based fluorescence assay (reference value: 1026.51 +/- 157.33)
# [13] = Mixed-type inhibition of recombinant human ALR2 expressed in Escherichia coli BL21 (DE3) assessed as enzyme-substrate-inhibitor complex using varying levels of 4-hydroxy-trans-2-nonenal substrate by Hanes-Woolf plot analysis
# [14] = Mixed-type inhibition of recombinant human ALR2 expressed in Escherichia coli BL21 (DE3) assessed as enzyme-inhibitor complex using varying levels of D,L-glyceraldehyde substrate by Hanes-Woolf plot analysis
# [15] = Mixed-type inhibition of recombinant human ALR2 expressed in Escherichia coli BL21 (DE3) assessed as enzyme-inhibitor complex using varying levels of 4-hydroxy-trans-2-nonenal substrate by Hanes-Woolf plot analysis
# [16] = species: Rattus norvegicus; assay: Inhibition of ALR2 in Wistar rat lens assessed as reduction in glucose induced-sorbitol accumulation by measuring sorbitol level at 50 uM pretreated for 30 mins followed by glucose challenge measured after 3 hrs by resazurin dye based fluorescence assay relative to control; set-up: scale not given: the % may be the effect or the level left
# Sequence of Aldo-keto reductase family 1 member A1 (P51635 whole entry, looked up): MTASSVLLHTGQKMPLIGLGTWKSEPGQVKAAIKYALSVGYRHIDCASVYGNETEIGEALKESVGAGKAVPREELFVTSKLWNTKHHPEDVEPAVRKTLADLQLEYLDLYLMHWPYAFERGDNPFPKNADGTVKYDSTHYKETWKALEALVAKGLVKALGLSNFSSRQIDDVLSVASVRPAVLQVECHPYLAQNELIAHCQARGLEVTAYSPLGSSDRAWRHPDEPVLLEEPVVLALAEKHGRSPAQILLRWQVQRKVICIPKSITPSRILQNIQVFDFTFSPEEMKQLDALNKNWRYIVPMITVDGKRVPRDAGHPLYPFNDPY
SMILES,IC50 [1] [nM],pIC50 [1],IC50 [3] [µM],IC50 [4] [nM],Activity [7] [nmol/g],Ratio Ki [9],Activity [12] [nmol/g],Activity [16] [%],Ratio IC50 [2],Ki [5] [nM],Ki [6] [µM],Ki [8] [nM],Ki [10] [nM],Ki [11] [nM],Ki [13] [nM],Ki [14] [µM],Ki [15] [µM]
COc1cccc(C(=O)c2cc(C(=O)C(F)(F)F)n(-c3cnn(O)c3)c2)c1,64,7.13,23.7,–,–,–,–,–,370,–,–,–,–,–,–,–,–
O=C(c1ccccc1)c1cc(C(=O)C(F)(F)F)n(-c2cnn(O)c2)c1,242,6.62,> 100,–,–,–,–,–,> 413,–,–,–,–,–,–,–,–
O=C(c1ccc(F)cc1)c1cc(C(=O)C(F)(F)F)n(-c2cnn(O)c2)c1,78,7.11,67.1,–,710,0.75,838,55,858,820,8.61,700,1860,2460,2190,5.27,5.84
CSc1ccc(C(=O)c2cc(C(=O)C(F)(F)F)n(-c3cnn(O)c3)c2)cc1,43,7.37,27.9,–,613,0.75,889,55,650,210,4.55,270,690,930,390,2.01,2.83

# Now from value to compound, other results behind:
IC50 [1] [nM],pIC50 [1],IC50 [3] [µM],IC50 [4] [nM],Activity [7] [nmol/g],Ratio Ki [9],Activity [12] [nmol/g],Activity [16] [%],SMILES,Ratio IC50 [2],Ki [5] [nM],Ki [6] [µM],Ki [8] [nM],Ki [10] [nM],Ki [11] [nM],Ki [13] [nM],Ki [14] [µM],Ki [15] [µM]
–,–,–,250,–,–,–,–,O=C1NC(=O)[C@@]2(CCOc3ccc(F)cc32)N1 [SORBINIL],–,–,–,–,–,–,–,–,–
140,6.85,42.3,–,–,–,–,–,O=C(c1cccc(F)c1)c1cc(C(=O)C(F)(F)F)n(-c2cnn(O)c2)c1,339,–,–,–,–,–,–,–,–
74,7.19,14.1,–,–,–,–,–,O=C(c1ccc(-c2ccccc2)cc1)c1cc(C(=O)C(F)(F)F)n(-c2cnn(O)c2)c1,190,–,–,–,–,–,–,–,–
94,7.03,72.8,–,–,–,–,–,CS(=O)(=O)c1ccc(C(=O)c2cc(C(=O)C(F)(F)F)n(-c3cnn(O)c3)c2)cc1,775,–,–,–,–,–,–,–,–
73,7.14,34.2,–,–,–,–,–,COc1ccc(C(=O)c2cc(C(=O)C(F)(F)F)n(-c3cnn(O)c3)c2)cc1,468,–,–,–,–,–,–,–,–
